Reference: US20070207967A1, “Peptide Inhibitors of Matrix Metalloproteinase Activity” (CTT CANCER TARGETING TECHNOLOGIES OY, priority 2004, published 2007)

Key:
[1] = target: T1, aminophenylmercuric acetate (APMA)-activated MMP-2 (Homo sapiens, UniProt P08253); assay: Gelatinase inhibition assay (gelatin degradation), MMP-2; format: biochemical; settings: biotinylated gelatin substrate
T1 sequence (P08253 110-660): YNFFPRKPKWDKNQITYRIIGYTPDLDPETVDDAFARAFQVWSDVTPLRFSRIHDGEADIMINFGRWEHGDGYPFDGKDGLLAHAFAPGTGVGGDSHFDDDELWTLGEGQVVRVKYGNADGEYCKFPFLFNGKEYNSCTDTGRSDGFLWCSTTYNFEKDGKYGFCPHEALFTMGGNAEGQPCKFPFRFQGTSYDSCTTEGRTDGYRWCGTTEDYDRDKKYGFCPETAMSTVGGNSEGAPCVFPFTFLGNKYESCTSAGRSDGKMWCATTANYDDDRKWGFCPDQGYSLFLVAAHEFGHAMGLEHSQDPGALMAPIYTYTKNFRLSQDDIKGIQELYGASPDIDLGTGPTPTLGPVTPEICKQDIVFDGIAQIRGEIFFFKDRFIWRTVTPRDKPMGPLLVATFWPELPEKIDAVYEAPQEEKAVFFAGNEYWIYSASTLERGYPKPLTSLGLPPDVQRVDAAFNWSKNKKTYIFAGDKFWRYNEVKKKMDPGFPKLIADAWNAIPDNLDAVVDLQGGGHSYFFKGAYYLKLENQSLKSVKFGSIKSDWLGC
Method: (§1) Gelatinase inhibition assay. Inhibition of aminophenylmercuric acetate (APMA)-activated MMP-2 and trypsin-activated MMP-9 was performed using biotinylated gelatin as a substrate (15).

trypsin-activated MMP-9 = trypsin-activated MMP-9 (Homo sapiens, UniProt P14780); assay: Gelatinase inhibition assay (gelatin degradation), MMP-9; format: biochemical; settings: biotinylated gelatin substrate
Method: as §1

CBD [2] = target: T2, CBD (Homo sapiens, UniProt P14780); assay: CBD binding to fibronectin and vitronectin, solid phase; settings: 20 μM peptides, biotinylated CBD
T2 construct: CBD (amino acids Gly^204-Gly^373) was amplified from MMP-9 cDNA; made in house; host or cells: E. coli
Method: (§2) Gelatin and CBD binding assays. Recombinant CBD or human plasma fibronectin (Calbiochem) (0.2 μg/ml in TBS) was immobilized in microtiter wells. The wells were saturated with 1% BSA-PBST. Biotinylated gelatin (0.2 μg/ml in 1% BSA-PBST) was added with or without peptides at the concentrations indicated or with an excess of unlabelled gelatin (10 μg/ml) and allowed to bind for 1 h. Bound gelatin was detected with streptavidin-peroxidase. CBD binding to immobilized fibronectin, the 110-kDa fragment of fibronectin (Upstate Biotechnology) or urea-denaturated human plasma vitronectin (17) (1 μg/well) was studied using biotinylated CBD (5 μg/ml) in 1% BSA-PBST in the presence or absence of 20 μM peptides.

fibronectin = assay: Gelatin binding to fibronectin; parameters: species or system human; settings: data not shown
Method: as §2

HT1080 fibrosarcoma = assay: HT1080 invasion through matrigel; format: cell-based, human
Method: (§3) Cell migration and invasion. The cell migration assay was conducted using transwell migration chambers (8 μm pore size, Costar) in 10% serum-containing medium (2,14). Briefly, the membranes were coated on both sides with 40 μg/ml GST or with the β2 integrin ligand peptide […]-GST fusion (GST-LLG-C4) and blocked with complete medium. THP-1 cells (50 000/100 μl) were preincubated with the peptides for 1 h in serum-containing medium. The cells were allowed to migrate for 16 h and were then stained with crystal violet and counted (14). The HT1080 (20 000 cells/I100 μl) invasion assay was performed as the THP-1 migration, except that matrigel coated transwells (BD Biosciences) were used.

HT1080 cells = assay: Pericellular proteolysis (gelatinolysis) of HT1080 cells; format: cell-based, human; settings: HT1080, 48 h, PDBu, fibronectin/FITC-labelled gelatin coating
Method: Pericellular proteolysis. Microtiter wells were coated with a mixture of fibronectin (10 μg/ml) and FITC-labelled gelatin (100 μg/ml) followed by saturation with 1% BSA in PBS. HT1080 cells (50 000 in 100 μl 0.1% BSA/DMEM) were incubated in the presence of 20 nM PDBu (4β-phorbol-12,13-dibutyrate, SigmaAldrich) and the peptides or the MMP-2/MMP-9 selective inhibitor InhI (Calbiochem). As a control non-activated cells and medium without the cells were used. Gelatinolysis after 48 hours was measured as the increase of fluorescence from a 50 μl aliquot of the conditioned medium using Wallac Victor^2 reader.

THP-1 monocytic cells = assay: THP-1 cell migration on GST-LLG-C4; format: cell-based, human; settings: GST-LLG-C4 substratum, 16 h
Method: as §3

gelatinase [3] = assay: Gelatin degradation assay, gelatinase not specified; format: biochemical
Method: as §1

CBD [4] = target: T2, CBD; assay: Gelatin binding to immobilized CBD; settings: biotinylated gelatin
Method: as §2

αM integrin I domain = αM integrin I domain (Homo sapiens, UniProt P11215); assay: Pro-MMP-9 binding to αM integrin I domain
Method: Pro-MMP-9 and gelatin binding to leukocyte αM integrin. Pro-MMP-9 binding to the αM I domain in the presence of peptides was studied as described (12). Gelatin binding to the pro-MMP-^9/αMβ2 integrin complex was studied by immobilizing the integrin αMβ2 (12) or αIIbβ3 as a control (Enzyme Research Laboratories, South Bend, Ind.) (1 μg/well) in TBS/1 mM CaCl2/1 mM MgCl2 followed by saturation of the wells with 1% BSA in PB ST. Pro-MMP-9 (100 ng/well) was incubated for 2 h and the unbound pro-MMP-9 was washed away. Biotinylated gelatin (2.5 μg/ml) was allowed to bind for 30 min at room temperature. Bound gelatin was detected with streptavidin-peroxidase.

pro-MMP-9 [5] = target: T3, pro-MMP-9 (Homo sapiens, UniProt P14780); assay: Phage binding to pro-MMP-9 with competitors; settings: competitor peptides 20 μM, gelatin 2.5 μg/ml; for Binding of the CRV-phage to pro-MMP-9, competition: TIMP-1 2.5 μg/ml
Method: Phage display. Phage display selections were made using random peptide libraries CX7-10C and X9-10 (13). Purified human pro-MMP-9 (9) or recombinant MMP-9 C domain (2 μg/ml) was immobilized on microtiter wells and the wells were blocked with BSA. The phage were added in 50 mM Hepes (pH 7.5)/5 mM CaCl2/1 μM ZnCl2/150 mM NaCl/2% BSA. After three rounds of selection the phage sequences were determined (14). The phage binding specificity was tested with pro-MMPs or the recombinant domains (20 ng/well). The phage (10^8 transducing units/well) were allowed to bind in the absence or presence of competitor peptides (20 μM), gelatin (2.5 μg/ml) or TIMP-1 (2.5 μg/ml, Calbiochem) followed by washings with PBS/0.05% Tween20 (PBST). The phage were detected with a peroxidase-conjugated anti-phage antibody (Amersham Biosciences).

pro-MMP-9 [6] = target: T3, pro-MMP-9; assay: Pro-MMP-9 activation in THP-1 cells, zymography; format: cell-based; settings: THP-1, pro-MMP-3 and plasminogen, peptides 200 μM
Method: Activation of MMP-9. THP-1 cells (40 000/100 μl) or confluent HT1080 cells were incubated for 16 h in the presence or absence of 2.5 μg/ml plasminogen, 0.5 μg/ml pro-MMP-3 (Oncogene Research Products), 40 nM PDBu, and the peptides at a 200 μM concentration unless otherwise indicated. Aliquots of the conditioned media were analyzed by gelatin zymography (9). […] The samples were analyzed by gelatin zymography.

uPAR [7] = assay: uPAR cleavage on HT1080 cells; format: cell-based, human; settings: for Inhibition of uPAR cleavage: HT1080, InhI 20 μM, aprotinin 25 μg/ml, benzamidine 20 μM, 48 h
Excerpt: (§4) uPAR clevage. […] Chymotrypsin cleavage was done without aprotinin.

uPAR [8] = assay: uPAR cleavage on THP-1 cells; format: cell-based, human; settings: InhI 20 μM, CTT 200 μM, aprotinin 25 μg/ml
Excerpt: as §4

CBD [9] = target: T2, CBD; assay: Pepspot membrane assay of CBD binding; settings: 0.2 μg/ml biotinylated CBD
Method: Peptide synthesis. The phage peptides were initially prepared in a recombinant form using intein fusions (12,15). Chemical peptide synthesis was done using Fmoc-chemistry and the purity and integrity of the peptides was verified by mass spectroscopy (15). The peptides were dissolved in water, except the CRV and DDGW peptides, which were dissolved in 50 mM NaOH at a 10 mM concentration and then diluted into PBS to neutralize the pH. The […] and […] peptides were synthesized on a cellulose membrane. The membrane was blocked with 3% BSA in TBS/0.05% Tween 20, and incubated with 0.2 μg/ml biotinylated CBD. Bound CBD was detected using peroxidase-conjugated streptavidin (1:10 000 dilution, Pierce) and chemiluminescence detection.

gelatinase [10] = settings: 100 μM concentration; ref (15); cited from earlier work

T3 sequence (P14780 20-707 limits assumed): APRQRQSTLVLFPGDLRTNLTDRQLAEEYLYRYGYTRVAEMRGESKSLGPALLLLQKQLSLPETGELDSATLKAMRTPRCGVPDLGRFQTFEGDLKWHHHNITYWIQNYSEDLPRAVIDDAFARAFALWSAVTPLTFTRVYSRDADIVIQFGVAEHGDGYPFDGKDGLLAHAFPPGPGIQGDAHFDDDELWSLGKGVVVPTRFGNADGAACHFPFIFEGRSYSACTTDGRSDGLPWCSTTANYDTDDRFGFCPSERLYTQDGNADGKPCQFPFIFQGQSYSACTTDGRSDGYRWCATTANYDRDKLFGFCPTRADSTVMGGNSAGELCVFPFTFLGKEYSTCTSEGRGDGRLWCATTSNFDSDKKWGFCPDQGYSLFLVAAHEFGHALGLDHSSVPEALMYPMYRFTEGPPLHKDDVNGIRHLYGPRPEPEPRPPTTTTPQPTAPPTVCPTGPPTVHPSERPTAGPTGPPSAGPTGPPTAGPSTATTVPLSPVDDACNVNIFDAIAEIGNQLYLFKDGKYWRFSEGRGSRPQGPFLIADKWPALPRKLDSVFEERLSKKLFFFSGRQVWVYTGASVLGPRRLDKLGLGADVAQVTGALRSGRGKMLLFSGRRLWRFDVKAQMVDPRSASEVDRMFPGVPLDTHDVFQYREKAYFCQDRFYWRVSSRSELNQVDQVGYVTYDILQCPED
T2 sequence (P14780 223-392 limits assumed): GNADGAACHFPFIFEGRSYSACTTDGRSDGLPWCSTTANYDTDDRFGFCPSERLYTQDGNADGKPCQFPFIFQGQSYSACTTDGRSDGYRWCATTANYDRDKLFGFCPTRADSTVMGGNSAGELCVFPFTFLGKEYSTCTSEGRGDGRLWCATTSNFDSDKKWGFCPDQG
Chain of trypsin-activated MMP-9 (P14780 107-707 limits assumed): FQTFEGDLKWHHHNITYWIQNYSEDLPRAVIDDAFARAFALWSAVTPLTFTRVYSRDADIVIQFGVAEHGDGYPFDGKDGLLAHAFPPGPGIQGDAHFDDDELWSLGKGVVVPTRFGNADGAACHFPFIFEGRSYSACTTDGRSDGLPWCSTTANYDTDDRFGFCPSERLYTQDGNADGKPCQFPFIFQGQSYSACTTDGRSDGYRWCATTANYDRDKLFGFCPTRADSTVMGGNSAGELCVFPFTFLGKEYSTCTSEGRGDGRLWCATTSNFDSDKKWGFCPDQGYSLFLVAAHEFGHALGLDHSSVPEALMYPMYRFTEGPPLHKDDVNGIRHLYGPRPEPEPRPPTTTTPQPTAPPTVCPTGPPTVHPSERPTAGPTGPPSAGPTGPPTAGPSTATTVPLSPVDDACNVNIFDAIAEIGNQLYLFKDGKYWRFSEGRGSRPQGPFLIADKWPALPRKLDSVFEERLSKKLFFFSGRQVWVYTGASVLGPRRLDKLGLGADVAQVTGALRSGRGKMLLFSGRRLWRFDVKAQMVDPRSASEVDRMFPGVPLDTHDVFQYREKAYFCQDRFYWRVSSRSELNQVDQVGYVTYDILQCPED
Chain of αM integrin I domain (P11215 150-328 limits assumed): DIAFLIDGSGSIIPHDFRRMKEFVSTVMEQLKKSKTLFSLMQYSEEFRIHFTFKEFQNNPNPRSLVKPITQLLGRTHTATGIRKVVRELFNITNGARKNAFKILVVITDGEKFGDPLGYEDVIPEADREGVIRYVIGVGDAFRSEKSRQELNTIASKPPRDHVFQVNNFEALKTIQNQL
Chain of fibronectin (P02751 306-608 limits assumed): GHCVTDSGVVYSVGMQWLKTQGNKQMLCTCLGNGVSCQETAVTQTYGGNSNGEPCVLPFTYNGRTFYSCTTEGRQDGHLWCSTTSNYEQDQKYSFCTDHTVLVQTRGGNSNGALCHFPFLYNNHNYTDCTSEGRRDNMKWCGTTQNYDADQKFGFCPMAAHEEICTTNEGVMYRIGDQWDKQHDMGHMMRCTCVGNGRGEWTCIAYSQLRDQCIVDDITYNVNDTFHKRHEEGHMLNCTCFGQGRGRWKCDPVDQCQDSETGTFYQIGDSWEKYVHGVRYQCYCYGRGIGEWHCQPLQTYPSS

ADGACGYGRFSPPCGAAG
Inhibition of MMP-2 activity in gelatin degradation assay [1]: inhibited | Inhibition of MMP-9 activity in gelatin degradation assay (trypsin-activated MMP-9): inhibited | Inhibition of CBD binding to fibronectin and vitronectin (CBD [2]): inhibited | Effect on gelatin binding to fibronectin (fibronectin): no effect | IC50 (HT1080 fibrosarcoma; matrigel, read-out: Concentration required to achieve the same efficacy (50% inhibition of HT1080 invasion)): 500 µM | Inhibition of pericellular gelatinolysis (HT1080 cells): inhibited | Inhibition of THP-1 migration (THP-1 monocytic cells): inhibitory effect | Gelatinase inhibitor strength relative to CTT (gelatinase [3]): weaker gelatinase inhibitor than CTT | Inhibition of gelatin binding to immobilized CBD (CBD [4]): inhibited gelatin binding to immobilized CBD in a dose dependent manner | Effect on interaction of MMP-9 with the leukocyte αM integrin I domain (αM integrin I domain): do not affect | Higher pro-MMP-9 binding to the I domain in the presence of peptide (αM integrin I domain; typically): 20-50% | Binding of PPC peptide-bearing phage to pro-MMP-9, competition (pro-MMP-9 [5]): inhibited | Binding of the CRV-phage to pro-MMP-9, competition (pro-MMP-9 [5]): not | Effect on pro-MMP-9 activation (pro-MMP-9 [6]): augmented

O=C(O)[C@@H](Cc1ccccc1)NS(=O)(=O)c1ccc(-c2ccccc2)cc1 [InhI]
Level of cell surface-bound uPA (uPAR [7]; HT1080, InhI 20 μM): reduced | Inhibition of uPAR cleavage (uPAR [7]): inhibited uPAR cleavage | Inhibition of pericellular gelatinolysis (HT1080 cells): inhibited | Inhibition of uPAR cleavage (uPAR [8]): inhibited

N=C(N)c1ccccc1 [benzamidine]
Inhibition of uPAR cleavage (uPAR [7]): not

TTPNSLLVSWQPPRARIT [PPC-like fibronectin peptide]
Binding of biotinylated CBD to peptide on pepspot membrane (CBD [9]): bound

aprotinin
Inhibition of uPAR cleavage (uPAR [7]): not | Inhibition of uPAR cleavage (uPAR [8]): not

ADGACPSYGPRFGCGAAG [scr. PPC, scrambled control peptide of PPC, reference compound]
Inhibition of MMP-2 activity in gelatin degradation assay [1]: no effect | Inhibition of MMP-9 activity in gelatin degradation assay (trypsin-activated MMP-9): no effect

gelatin
Binding of PPC peptide-bearing phage to pro-MMP-9, competition (pro-MMP-9 [5]): inhibited | Binding of the CRV-phage to pro-MMP-9, competition (pro-MMP-9 [5]): not

CTTHWGFTLC [reference compound]
Inhibition of HT1080 invasion into matrigel (HT1080 fibrosarcoma; 200 μM concentration): 50% | Inhibition of pericellular gelatinolysis (HT1080 cells): inhibited | Inhibition of gelatin degradation (gelatinase [10]): completely inhibits | Inhibition of THP-1 migration (THP-1 monocytic cells): inhibitory effect | Inhibition of uPAR cleavage (uPAR [8]): inhibited | Inhibition of gelatin binding to immobilized CBD (CBD [4]): not | Binding of PPC peptide-bearing phage to pro-MMP-9, competition (pro-MMP-9 [5]): not | Binding of the CRV-phage to pro-MMP-9, competition (pro-MMP-9 [5]): not
